{"source": "patent US10722520B2", "about": "“Heterocyclic compounds and their use in preventing or treating bacterial infections” (MUTABILIS, priority 2016, dated 2020)", "key": {"OXA-15": {"molecular_target": "OXA-15 (Pseudomonas aeruginosa, UniProt Q51574)", "sequence (Q51574 22-275)": "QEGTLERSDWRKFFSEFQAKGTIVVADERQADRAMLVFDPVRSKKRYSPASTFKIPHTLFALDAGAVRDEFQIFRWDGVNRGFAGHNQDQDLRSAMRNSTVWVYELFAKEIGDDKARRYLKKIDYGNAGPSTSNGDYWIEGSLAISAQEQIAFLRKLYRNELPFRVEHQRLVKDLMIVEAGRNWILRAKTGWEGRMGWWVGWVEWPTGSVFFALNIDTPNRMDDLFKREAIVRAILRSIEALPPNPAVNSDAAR", "assay": "biochemical"}, "E. coli RGN238 [1]": {"tested_on": "E. coli RGN238", "assay": "microbe, parasite or virus in culture", "format": "cell-based", "details": "Escherichia coli, RGN238, read-out: MIC compounds of the invention alone", "procedure": "Log phase bacterial suspensions were adjusted to a final density of 5×10^5 cfu/mL in cation-adjusted Mueller-Hinton broth (Becton-Dickinson) and added to each well (98 μL). Microplates were incubated for 16-20 h at 35° C. in ambient air. The MIC of the compounds was defined as the lowest concentration of said compounds that prevented bacterial growth as read by visual inspection."}, "OXA-48": {"molecular_target": "OXA-48 (Klebsiella pneumoniae, UniProt Q6XEC0)", "sequence (Q6XEC0 23-265, looked up, species assumed)": "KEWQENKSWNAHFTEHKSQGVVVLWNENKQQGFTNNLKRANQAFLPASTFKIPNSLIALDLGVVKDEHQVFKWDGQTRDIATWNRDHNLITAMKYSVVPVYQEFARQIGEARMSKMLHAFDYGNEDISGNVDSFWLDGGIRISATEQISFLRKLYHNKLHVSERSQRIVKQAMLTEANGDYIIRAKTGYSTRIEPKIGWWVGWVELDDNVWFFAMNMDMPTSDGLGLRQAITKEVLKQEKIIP"}, "KPC-2": {"molecular_target": "KPC-2 (Klebsiella pneumoniae, UniProt Q9F663)", "sequence (Q9F663 25-293, looked up, species assumed)": "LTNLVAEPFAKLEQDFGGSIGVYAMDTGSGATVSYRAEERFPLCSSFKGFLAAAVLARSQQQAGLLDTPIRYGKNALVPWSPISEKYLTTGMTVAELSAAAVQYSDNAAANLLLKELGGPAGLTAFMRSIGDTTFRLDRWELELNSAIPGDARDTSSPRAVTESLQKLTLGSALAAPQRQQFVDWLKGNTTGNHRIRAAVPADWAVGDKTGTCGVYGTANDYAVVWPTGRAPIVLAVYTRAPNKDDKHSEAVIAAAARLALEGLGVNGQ"}, "CTX-M-15": {"molecular_target": "CTX-M-15 (Escherichia coli, UniProt Q9EXV5)", "sequence (Q9EXV5 29-291, species assumed)": "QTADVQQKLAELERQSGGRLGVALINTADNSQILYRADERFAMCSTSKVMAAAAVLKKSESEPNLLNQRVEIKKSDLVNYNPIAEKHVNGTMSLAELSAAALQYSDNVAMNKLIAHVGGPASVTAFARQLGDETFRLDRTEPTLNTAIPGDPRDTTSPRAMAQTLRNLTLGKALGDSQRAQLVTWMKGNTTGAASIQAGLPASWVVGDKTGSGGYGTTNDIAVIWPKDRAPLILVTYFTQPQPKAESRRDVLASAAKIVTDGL"}, "E. cloacae UFR70": {"tested_on": "E. cloacae UFR70", "assay": "MIC of ceftazidime (CAZ) at fixed concentration of compound (synergy), broth microdilution", "format": "cell-based", "details": "MIC of ceftazidime with compound fixed at 4 μg/mL; strain UFR70 (E. cloacae)", "procedure,_shortened": "(§1)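 Log-phase bacteria were diluted to a final 5×10^5 cfu/mL in cation-adjusted Mueller-Hinton broth and incubated 16-20 h at 35° C in ambient air. MIC was taken as the lowest concentration preventing growth, judged visually.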"}, "E. cloacae 260508": {"tested_on": "E. cloacae 260508", "assay": "MIC of ceftazidime (CAZ) at fixed concentration of compound (synergy), broth microdilution", "format": "cell-based", "details": "MIC of ceftazidime with compound fixed at 4 μg/mL; strain 260508 (E. cloacae)", "procedure,_shortened": "as §1"}, "E. coli UFR74": {"tested_on": "E. coli UFR74", "assay": "MIC of ceftazidime (CAZ) at fixed concentration of compound (synergy), broth microdilution", "format": "cell-based", "details": "MIC of ceftazidime with compound fixed at 4 μg/mL; strain UFR74 (E. coli)", "procedure,_shortened": "as §1"}, "E. coli UFR32": {"tested_on": "E. coli UFR32", "assay": "MIC of ceftazidime (CAZ) at fixed concentration of compound (synergy), broth microdilution", "format": "cell-based", "details": "MIC of ceftazidime with compound fixed at 4 μg/mL; strain UFR32 (E. coli)", "procedure,_shortened": "as §1"}, "K. pneumoniae UFR68": {"tested_on": "K. pneumoniae UFR68", "assay": "MIC of ceftazidime (CAZ) at fixed concentration of compound (synergy), broth microdilution", "format": "cell-based", "details": "MIC of ceftazidime with compound fixed at 4 μg/mL; strain UFR68 (K. pneumoniae)", "procedure,_shortened": "as §1"}, "E. cloacae UFR85": {"tested_on": "E. cloacae UFR85", "assay": "MIC of ceftazidime (CAZ) at fixed concentration of compound (synergy), broth microdilution", "format": "cell-based", "details": "MIC of ceftazidime with compound fixed at 4 μg/mL; strain UFR85 (E. cloacae)", "procedure,_shortened": "as §1"}, "P. aeruginosa CIP107051": {"tested_on": "P. aeruginosa CIP107051", "assay": "MIC of ceftazidime (CAZ) at fixed concentration of compound (synergy), broth microdilution", "format": "cell-based", "details": "MIC of ceftazidime with compound fixed at 4 μg/mL; strain CIP107051 (P. aeruginosa)", "procedure,_shortened": "as §1"}, "E. coli RGN238 [2]": {"tested_on": "E. coli RGN238", "assay": "MIC of ceftazidime (CAZ) at fixed concentration of compound (synergy), broth microdilution", "format": "cell-based", "details": "MIC of ceftazidime with compound fixed at 4 μg/mL; strain RGN238 (E. coli)", "procedure,_shortened": "as §1"}, "E. coli UFR18": {"tested_on": "E. coli UFR18", "assay": "MIC of ceftazidime (CAZ) at fixed concentration of compound (synergy), broth microdilution", "format": "cell-based", "details": "MIC of ceftazidime with compound fixed at 4 μg/mL; strain UFR18 (E. coli)", "procedure,_shortened": "as §1"}, "E. coli 190317 [3]": {"tested_on": "E. coli 190317", "assay": "MIC of ceftazidime (CAZ) at fixed concentration of compound (synergy), broth microdilution", "format": "cell-based", "details": "MIC of ceftazidime with compound fixed at 4 μg/mL; strain 190317 (E. coli)", "procedure,_shortened": "as §1"}, "K. pneumoniae 160143": {"tested_on": "K. pneumoniae 160143", "assay": "MIC of ceftazidime (CAZ) at fixed concentration of compound (synergy), broth microdilution", "format": "cell-based", "details": "MIC of ceftazidime with compound fixed at 4 μg/mL; strain 160143 (K. pneumoniae)", "procedure,_shortened": "as §1"}, "E. coli UFR41": {"tested_on": "E. coli UFR41", "assay": "MIC of ceftazidime (CAZ) at fixed concentration of compound (synergy), broth microdilution", "format": "cell-based", "details": "MIC of ceftazidime with compound fixed at 4 μg/mL; strain UFR41 (E. coli)", "procedure,_shortened": "as §1"}, "E. cloacae P99": {"tested_on": "E. cloacae P99", "assay": "MIC of ceftazidime (CAZ) at fixed concentration of compound (synergy), broth microdilution", "format": "cell-based", "details": "MIC of ceftazidime with compound fixed at 4 μg/mL; strain P99 (E. cloacae)", "procedure,_shortened": "as §1"}, "E. coli UFR61O": {"tested_on": "E. coli UFR61O", "assay": "MIC of ceftazidime (CAZ) at fixed concentration of compound (synergy), broth microdilution", "format": "cell-based", "details": "MIC of ceftazidime with compound fixed at 4 μg/mL; strain UFR61O (E. coli)", "procedure,_shortened": "as §1"}, "K. pneumoniae UFR24": {"tested_on": "K. pneumoniae UFR24", "assay": "MIC of ceftazidime (CAZ) at fixed concentration of compound (synergy), broth microdilution", "format": "cell-based", "details": "MIC of ceftazidime with compound fixed at 4 μg/mL; strain UFR24 (K. pneumoniae)", "procedure,_shortened": "as §1"}, "K. pneumoniae 6299": {"tested_on": "K. pneumoniae 6299", "assay": "MIC of ceftazidime (CAZ) at fixed concentration of compound (synergy), broth microdilution", "format": "cell-based", "details": "MIC of ceftazidime with compound fixed at 4 μg/mL; strain 6299 (K. pneumoniae)", "procedure,_shortened": "as §1"}, "K. pneumoniae UFR77": {"tested_on": "K. pneumoniae UFR77", "assay": "MIC of ceftazidime (CAZ) at fixed concentration of compound (synergy), broth microdilution", "format": "cell-based", "details": "MIC of ceftazidime with compound fixed at 4 μg/mL; strain UFR77 (K. pneumoniae)", "procedure,_shortened": "as §1"}, "K. pneumoniae BAA-1898": {"tested_on": "K. pneumoniae BAA-1898", "assay": "MIC of ceftazidime (CAZ) at fixed concentration of compound (synergy), broth microdilution", "format": "cell-based", "details": "MIC of ceftazidime with compound fixed at 4 μg/mL; strain BAA-1898 (K. pneumoniae)", "procedure,_shortened": "as §1"}, "E. coli 131119": {"tested_on": "E. coli 131119", "assay": "MIC of ceftazidime (CAZ) at fixed concentration of compound (synergy), broth microdilution", "format": "cell-based", "details": "MIC of ceftazidime with compound fixed at 4 μg/mL; strain 131119 (E. coli)", "procedure,_shortened": "as §1"}, "K. oxytoca UFR21 [4]": {"tested_on": "K. oxytoca UFR21", "assay": "MIC of ceftazidime (CAZ) at fixed concentration of compound (synergy), broth microdilution", "format": "cell-based", "details": "MIC of ceftazidime with compound fixed at 4 μg/mL; strain UFR21 (K. oxytoca)", "procedure,_shortened": "as §1"}, "K. pneumoniae 200047": {"tested_on": "K. pneumoniae 200047", "assay": "MIC of ceftazidime (CAZ) at fixed concentration of compound (synergy), broth microdilution", "format": "cell-based", "details": "MIC of ceftazidime with compound fixed at 4 μg/mL; strain 200047 (K. pneumoniae)", "procedure,_shortened": "as §1"}, "E. cloacae UFR51": {"tested_on": "E. cloacae UFR51", "assay": "MIC of ceftazidime (CAZ) at fixed concentration of compound (synergy), broth microdilution", "format": "cell-based", "details": "MIC of ceftazidime with compound fixed at 4 μg/mL; strain UFR51 (E. cloacae)", "procedure,_shortened": "as §1"}, "E. coli UFR39": {"tested_on": "E. coli UFR39", "assay": "MIC of ceftazidime (CAZ) at fixed concentration of compound (synergy), broth microdilution", "format": "cell-based", "details": "MIC of ceftazidime with compound fixed at 4 μg/mL; strain UFR39 (E. coli)", "procedure,_shortened": "as §1"}, "E. coli 190317 [5]": {"tested_on": "E. coli 190317", "assay": "MIC of compound alone, broth microdilution", "format": "cell-based", "details": "Escherichia coli; strain 190317: E. coli; TEM-1, SHV-12, CTX-M-15, OXA-1; read-out: MIC compounds of the invention alone", "procedure,_shortened": "as §1"}, "K. oxytoca UFR21 [6]": {"tested_on": "K. oxytoca UFR21", "assay": "MIC of compound alone, broth microdilution", "format": "cell-based", "details": "Klebsiella oxytoca; strain UFR21: K. oxytoca; TEM-1, CTX-M-15, OXA-48; read-out: MIC compounds of the invention alone", "procedure,_shortened": "as §1"}}}
{"smiles": "O=C1N2CC(n3ccsc3=O)=CC(C2)N1OS(=O)(=O)[O-].[Na+]", "note": "(stereo not drawn) [Example 1, Sodium [7-oxo-3-(2-oxo-thiazol-3-yl)-1,6-diaza-bicyclo[3.2.1]oct-3-en-6-yl]sulfate]", "values": [{"measurement": "IC50", "setting": "OXA-15", "value": 92, "unit": "nM"}, {"measurement": "MIC", "setting": "E. coli RGN238 [1]", "value": 8, "unit": "µg/mL"}, {"measurement": "IC50", "setting": "OXA-48", "value": 1.9, "unit": "nM"}, {"measurement": "IC50", "setting": "KPC-2", "value": 13, "unit": "nM"}, {"measurement": "IC50", "setting": "CTX-M-15", "value": 0.55, "unit": "nM"}, {"measurement": "MIC combination of CAZ and compounds of the invention at 4 μg/mL", "setting": "E. cloacae UFR70", "value": "≤0.25"}, {"measurement": "MIC combination of CAZ and compounds of the invention at 4 μg/mL", "setting": "E. cloacae 260508", "value": "<0.25"}, {"measurement": "MIC combination of CAZ and compounds of the invention at 4 μg/mL", "setting": "E. coli UFR74", "value": "≤0.25"}, {"measurement": "MIC combination of CAZ and compounds of the invention at 4 μg/mL", "setting": "E. coli UFR32", "value": "<0.25"}, {"measurement": "MIC combination of CAZ and compounds of the invention at 4 μg/mL", "setting": "K. pneumoniae UFR68", "value": "<0.25"}, {"measurement": "MIC combination of CAZ and compounds of the invention at 4 μg/mL", "setting": "E. cloacae UFR85", "value": "<0.25"}, {"measurement": "MIC combination of CAZ and compounds of the invention at 4 μg/mL", "setting": "P. aeruginosa CIP107051", "value": 8}, {"measurement": "MIC combination of CAZ and compounds of the invention at 4 μg/mL", "setting": "E. coli RGN238 [2]", "value": "<0.25"}, {"measurement": "MIC combination of CAZ and compounds of the invention at 4 μg/mL", "setting": "E. coli UFR18", "value": "<0.25"}, {"measurement": "MIC combination of CAZ and compounds of the invention at 4 μg/mL", "setting": "E. coli 190317 [3]", "value": "<0.25"}, {"measurement": "MIC combination of CAZ and compounds of the invention at 4 μg/mL", "setting": "K. pneumoniae 160143", "value": "≤0.25"}, {"measurement": "MIC combination of CAZ and compounds of the invention at 4 μg/mL", "setting": "E. coli UFR41", "value": 0.5}, {"measurement": "MIC combination of CAZ and compounds of the invention at 4 μg/mL", "setting": "E. cloacae P99", "value": "<0.25"}, {"measurement": "MIC combination of CAZ and compounds of the invention at 4 μg/mL", "setting": "E. coli UFR61O", "value": "≤0.25"}, {"measurement": "MIC combination of CAZ and compounds of the invention at 4 μg/mL", "setting": "K. pneumoniae UFR24", "value": 0.5}, {"measurement": "MIC combination of CAZ and compounds of the invention at 4 μg/mL", "setting": "K. pneumoniae 6299", "value": "≤0.25"}, {"measurement": "MIC combination of CAZ and compounds of the invention at 4 μg/mL", "setting": "K. pneumoniae UFR77", "value": "≤0.25"}, {"measurement": "MIC combination of CAZ and compounds of the invention at 4 μg/mL", "setting": "K. pneumoniae BAA-1898", "value": "≤0.25"}, {"measurement": "MIC combination of CAZ and compounds of the invention at 4 μg/mL", "setting": "E. coli 131119", "value": "<0.25"}, {"measurement": "MIC combination of CAZ and compounds of the invention at 4 μg/mL", "setting": "K. oxytoca UFR21 [4]", "value": 0.5}, {"measurement": "MIC combination of CAZ and compounds of the invention at 4 μg/mL", "setting": "K. pneumoniae 200047", "value": "≤0.25"}, {"measurement": "MIC combination of CAZ and compounds of the invention at 4 μg/mL", "setting": "E. cloacae UFR51", "value": "<0.25"}, {"measurement": "MIC combination of CAZ and compounds of the invention at 4 μg/mL", "setting": "E. coli UFR39", "value": "<0.25"}, {"measurement": "MIC", "setting": "E. coli 190317 [5]", "value": 2, "unit": "µg/mL"}, {"measurement": "MIC", "setting": "K. oxytoca UFR21 [6]", "value": 8, "unit": "µg/mL"}]}
